In patent publication US20170065667A1, “METHODS FOR SYNCHRONIZATION OF ESTROUS CYCLES AND OVULATION FOR FIXED TIME ARTIFICIAL INSEMINATION IN CATTLE” (Parnell Technologies Pty Ltd., priority 2014, published 2017):
Values joined by “and” are separate entries in the source; they are usually repeats but may differ in a detail not shown here. Identical values can stand only once. Like-named read-outs stand apart in the source and are kept apart here.

How the values were obtained:
lactating dairy cows [1] = assay: Combined analysis of Experiments 1 and 2: effect of second cloprostenol sodium injection on P/AI; format: in vivo, cattle; details: Experiments 1 and 2 combined
Excerpt: Experiment 1 and Experiment 2 were done with a similar experimental design and therefore results were combined in order to more thoroughly test the effect of a second cloprostenol sodium injection in the Ovsynch protocol on P/AI. There was no effect of the second PGF on P/AI in primiparous cows (P=0.304). However in multiparous cows, the second cloprostenol sodium injection increased (P=0.046) P/AI by about 12%. This effect of a second cloprostenol sodium injection on P/AI was also observed when all cows were included in the analysis (P=0.042). The final combined analysis of both experiments provided the most statistical power to test our main hypothesis (Table 6). Overall, there was increased (P=0.042) P/AI with a 9.6% relative increase in fertility. As in both experiments, the effect was only statistically detectable in multiparous (P=0.046) and not in primiparous (P=0.304) cows. In our study an effect of parity on fertility was only detected in cows treated with Ovsynch (P=0.04) and not in cows treated with Ovsynch with the second PGF treatment (P=0.17). Future studies should directly test whether parity effects with Ovsynch-type protocols are related primarily to differences in CL regression between parities or reflect other fertility differences related to parity.

lactating Holstein cows = assay: Experiment 1: CL regression / circulating P4 after one vs. two 2 mL i.m. cloprostenol sodium injections in Double-Ovsynch; format: in vivo, cattle; details: for CL regression, % of cows: quartiles 2, 3 and 4 combined; for circulating P4 concentrations at 56 hours after the first injection: day of final gonadorelin acetate injection, serum, in ng/mL
Protocol: An experiment was conducted to determine the effectiveness of the exogenous administration of hormones for synchronizing the estrous cycles of lactating dairy cattle and resulting pregnancy rates subsequent to FTAI. A total of 373 lactating Holstein cows (172 primiparous, 201 multiparous) were synchronized with a Double-Ovsynch program comprising a first or presynchronization Ovsynch phase followed by a second Ovsynch phase. All animals were synchronized using a GnRH composition (about 100 mcg of gonadorelin acetate per mL, GONAbreed®, Parnell Technologies Pty Ltd, Alexandria, Australia) and a PGF2α analog composition (about 250 mcg of cloprostenol sodium per mL, estroPLAN®, Parnell Technologies Pty Ltd, Alexandria, Australia). The first Ovsynch phase began at about 51 to about 57 days in milk where the cows received a first 1 mL intramuscular injection of a gonadorelin acetate composition. At about 58 to about 64 days in milk, the cows received a first 2 mL intramuscular injection of a cloprostenol sodium composition. At about 61 to about 67 days in milk, the cows received a second 1 mL intramuscular injection of a gonadorelin acetate composition concluding the first Ovsynch phase. The animals were then synchronized with a second Ovsynch phase comprising an Ovsynch-56 protocol beginning at about 68 to about 74 days in milk where the cows received a third 1 mL intramuscular injection of gonadorelin acetate composition. At about 75 to about 81 days in milk, the animals received a second 2 mL intramuscular injection of a cloprostenol sodium composition. At about 77 to about 83 days in milk (about 56 hours after the second injection of a cloprostenol sodium composition), the animals received a fourth 1 mL intramuscular injection of a gonadorelin acetate composition. And at about 78 to about 84 days in milk (about 16 hours after the fourth injection of the gonadorelin acetate composition), the animals receive AI, concluding the second Ovsynch phase. […] The experimental protocol is shown in the diagram of FIG. 2. Blood samples of the cows were taken at the time of the second injection of the cloprostenol sodium composition (at about 72 hours before FTAI) and at the time of the fourth injection of the gonadorelin acetate composition (at about 16 hours before FTAI). Blood samples were collected from the coccygeal vessels into vacuum tubes. Following collection, the blood samples were placed on ice and transported to a laboratory. After clotting (about 16 hours), samples were centrifuged at 3,000 rpm for 20 minutes and serum was isolated into vials, frozen and stored at −20 Celsius until assayed for P4 concentrations. Progesterone was determined directly from serum using a solid phase radioimmunoassay kit (Coat-A-Count, Siemens Healthcare Diagnostics, Los Angeles, Calif.) with no extraction. […] Statistical analyses were performed with SAS (SAS Institute, 2006). Variables with a binomial distribution, such as P/AI and percentage of animals with CL regression, were analyzed by logistic regression using the LOGISTIC procedure. One-tailed comparisons were utilized throughout the study for comparison of the effect of an additional cloprostenol sodium injection on CL regression and animals pregnant to the FTAI. Continuous variables were analyzed using ANOVA with logistic regression utilized to compare the relationship between circulating P4 and the binomial traits. Animals with ≦2.0 ng/mL P4 on day of PGF were removed from the analysis (n=29; 13 primiparous, 16 multiparous) due to lack of synchronization to the double Ovsynch protocol. Therefore, all analyses were done with a total of 344 lactating dairy cows (n=159 primiparous; n=185 multiparous). Statistical differences were considered significant for P≦0.05 and as a tendency for P≦0.15.

lactating dairy cows [2] = details: cited from earlier work
lactating dairy cows [3] = details: cited from earlier work; for percentage of cows with complete CL regression (<0.4 ng/mL 56 hours after PGF2α): 7 day Ovsynch
[4] = one injection, overall (all cows), P4 <0.5 ng/mL at 56 h
[5] = two injections, Quartile 1, [P4] 2.0-5.4 at first injection
[6] = two injections, overall (all cows), P4 <0.5 ng/mL at 56 h
[7] = dose from 500 to 750 μg, 7 day protocol

For `O=C(O)CCC/C=C\CC1C(O)CC(O)C1/C=C/C(O)COc1cccc(Cl)c1` (stereo not shown) [cloprostenol sodium], the “increase in P/AI by second cloprostenol sodium injection” value (lactating dairy cows [1]; multiparous cows) was “about 12%”, the “percentage of cows with P4 below 0.2 ng/mL at final GnRH” value (lactating Holstein cows; one injection) was 42.0% and the “percentage of cows with higher P4 (>0.5 ng/mL) at final GnRH” value (lactating Holstein cows; one injection) was 17.0%. The “percentage of cows with lower P4 (0.1 to 0.19) at final GnRH” value (lactating Holstein cows; one injection) was 34.7%, the “CL regression, % (n/n)” value (lactating Holstein cows; one injection, Quartile 1, [P4] 2.0-4.8 at first injection) was 66.7% and 66.7 (28/42) % and the “CL regression, % (n/n)” value (lactating Holstein cows; one injection, Quartile 2, [P4] 4.9-6.7) was 84.4 (38/45) %. For the same compound, the “CL regression, % (n/n)” value (lactating Holstein cows; one injection, Quartile 3, [P4] 6.8-8.7) was 95.5 (42/44) %, the “CL regression, % (n/n)” value (lactating Holstein cows; one injection, Quartile 4, [P4] 8.8-12) was 84.4 (38/45) % and the “% of cows with complete CL regression” value (lactating Holstein cows; one injection, multiparous, P4 <0.5 ng/mL at 56 h) was 84.4% (81/96). The “% of cows with complete CL regression” value (lactating Holstein cows; [4]) was 83.0% (146/176), the “% of cows with complete CL regression” value (lactating Holstein cows; one injection, primiparous, P4 <0.5 ng/mL at 56 h after first injection) was 81.2% (65/80) and the “CL regression, % of cows” value (lactating Holstein cows; one injection) was 88.1%. The “circulating P4 concentrations at 56 hours after the first injection” value (lactating Holstein cows; single injection) was 0.4 ± 0.04, the “percentage of cows with P4 below 0.2 ng/mL at final GnRH” value (lactating Holstein cows; two injections) was 60.7% and the “percentage of cows with higher P4 (>0.5 ng/mL) at final GnRH” value (lactating Holstein cows; two injections) was 2.4%. For the same compound, the “percentage of cows with lower P4 (0.1 to 0.19) at final GnRH” value (lactating Holstein cows; two injections) was 49.4%, the “% of cows with complete CL regression” value (lactating Holstein cows; two injections (second 24 h after first), primiparous, P4 <0.5 ng/mL at 56 h) was 97.5% (77/79) and the “CL regression, % (n/n)” value (lactating Holstein cows; [5]) was 95.1% and 95.1 (39/41) %. For the same compound, the “CL regression, % (n/n)” value (lactating Holstein cows; two injections, Quartile 2, [P4] 5.5-7.0) was 95.6 (43/45) %, the “CL regression, % (n/n)” value (lactating Holstein cows; two injections, Quartile 3, [P4] 7.1-8.6) was 100 (43/43) % and the “CL regression, % (n/n)” value (lactating Holstein cows; two injections, Quartile 4, [P4] 8.7-12) was 97.4 (38/39) %. For the same compound, the “circulating P4 concentrations at 56 hours after the first injection” value (lactating Holstein cows; two injections) was 0.2 ± 0.05, the “% of cows with complete CL regression” value (lactating Holstein cows; two injections, multiparous, P4 <0.5 ng/mL at 56 h) was 96.7% (86/89) and the “% of cows with complete CL regression” value (lactating Holstein cows; [6]) was 97.0% (163/168). The “CL regression, % of cows” value (lactating Holstein cows; two injections) was 97.6%, the “effect on fertility of increasing the dose” value (lactating dairy cows [2]; [7]) was “tended to increase fertility” and the “percentage of cows with complete CL regression” value (lactating dairy cows [3]; dinoprost 25 mg, cloprostenol 0.5 mg) was 79%. For the same compound, the “effect on CL regression of increasing the dose” value (lactating dairy cows [3]; [7]) was “increased CL regression in multiparous but not primiparous cows”.
In the case of prostaglandin F2α [PGF], the “effect of the second PGF on P/AI” value (lactating dairy cows [1]; primiparous cows) is reported as “no effect”, the “% of cows with complete CL regression” value (lactating Holstein cows; [4]) is reported as 83% and the “% of cows that did not completely regress the CL” value (lactating Holstein cows; single PGF treatment, all cows) is reported as 18%. The “% of cows with inadequate CL regression” value (lactating Holstein cows; single PGF treatment, greater circulating P4 at time of PGF) was 11.9%, the “% of cows with inadequate CL regression” value (lactating Holstein cows; single PGF treatment, lower P4 (2.0 to 4.8 ng/mL) at time of PGF) was 33.3% and the “CL regression, % (n/n)” value (lactating Holstein cows; [5]) was 95.1%. The “% of cows with complete CL regression” value (lactating Holstein cows; [6]) was 97%, the “CL regression, % of cows” value (lactating Holstein cows; two injections) was 97.6% and the “improvement in fertility in first service cows, two vs. one PGF2α” value (lactating dairy cows [2]; 7 day Ovsynch, not statistically significant) was 5.7%. For the same compound, the “fertility in first service cows” value (lactating dairy cows [2]; one PGF2α treatment, 7 day Ovsynch) was 47.0%, the “fertility in first service cows” value (lactating dairy cows [2]; two PGF2α treatments, 7 day Ovsynch) was 52.7% and the “% of cows with CL regression” value (lactating dairy cows [3]; cows that ovulated to the first GnRH) was 79.4%. For the same compound, the “% of cows not having complete CL regression” value (lactating dairy cows [3]; cows with a d7 and a d14 CL) was 8.2%, the “% of cows not having complete CL regression” value (lactating dairy cows [3]; cows with a single d7 CL) was 35.6% and the “% of cows not having complete CL regression” value (lactating dairy cows [3]; cows with a single d14 CL) was 3.0%. The “% of cows with CL regression” value (lactating dairy cows [3]; cows without ovulation to the first GnRH) was 93%, the “percentage of cows with complete CL regression (<0.4 ng/mL 56 hours after PGF2α)” value (lactating dairy cows [3]; one PGF2α treatment (day 7)) was 84.6% and the “% of cows with complete CL regression (<0.4 ng/mL at 56 hours after PGF2α)” value (lactating dairy cows [3]; resynchronized at 32 days after TAI with Ovsynch (Resynch-32)) was 83.7%. For the same compound, the “% of cows with complete CL regression (<0.4 ng/mL at 56 hours after PGF2α)” value (lactating dairy cows [3]; resynchronized with Double-Ovsynch) was 89.1%, the “% of cows with lack of complete / inadequate CL regression” value (lactating dairy cows [3]; single PGF2α treatment, Ovsynch-type protocols, literature) was 10 to 25% and 10-25% and the “percentage of cows with complete CL regression (<0.4 ng/mL 56 hours after PGF2α)” value (lactating dairy cows [3]; two PGF2α treatments (day 7 and day 8)) was 95.6%.
